Experimental data published in patent US10023570B2 (Array BioPharma, Inc., priority 2015, dated 2018).
Counter-ions that a name gives are not always drawn.

Target: human KDR protein in HEK-293 cells (Homo sapiens (Human), UniProt P35968)
Test: KDR Cell Assay (phospho-KDR in HEK-293 cells expressing inducible KDR)
Type: cell-based
Conditions: pKDR Cell HEK 10% FBS IC50, HEK-293 cells expressing inducible KDR, VEGF stimulated
Method in brief: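 HEK-293 cells with inducible human KDR were treated with compound for 1 h in DMEM (0.25% DMSO final), then lysed. Phospho-KDR was quantified by Meso Scale immunoassay, expressed as percent of control, and IC50 taken where a 4-parameter logistic fit crossed 50 POC.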

Sequence of human KDR protein in HEK-293 cells (P35968 20-1356): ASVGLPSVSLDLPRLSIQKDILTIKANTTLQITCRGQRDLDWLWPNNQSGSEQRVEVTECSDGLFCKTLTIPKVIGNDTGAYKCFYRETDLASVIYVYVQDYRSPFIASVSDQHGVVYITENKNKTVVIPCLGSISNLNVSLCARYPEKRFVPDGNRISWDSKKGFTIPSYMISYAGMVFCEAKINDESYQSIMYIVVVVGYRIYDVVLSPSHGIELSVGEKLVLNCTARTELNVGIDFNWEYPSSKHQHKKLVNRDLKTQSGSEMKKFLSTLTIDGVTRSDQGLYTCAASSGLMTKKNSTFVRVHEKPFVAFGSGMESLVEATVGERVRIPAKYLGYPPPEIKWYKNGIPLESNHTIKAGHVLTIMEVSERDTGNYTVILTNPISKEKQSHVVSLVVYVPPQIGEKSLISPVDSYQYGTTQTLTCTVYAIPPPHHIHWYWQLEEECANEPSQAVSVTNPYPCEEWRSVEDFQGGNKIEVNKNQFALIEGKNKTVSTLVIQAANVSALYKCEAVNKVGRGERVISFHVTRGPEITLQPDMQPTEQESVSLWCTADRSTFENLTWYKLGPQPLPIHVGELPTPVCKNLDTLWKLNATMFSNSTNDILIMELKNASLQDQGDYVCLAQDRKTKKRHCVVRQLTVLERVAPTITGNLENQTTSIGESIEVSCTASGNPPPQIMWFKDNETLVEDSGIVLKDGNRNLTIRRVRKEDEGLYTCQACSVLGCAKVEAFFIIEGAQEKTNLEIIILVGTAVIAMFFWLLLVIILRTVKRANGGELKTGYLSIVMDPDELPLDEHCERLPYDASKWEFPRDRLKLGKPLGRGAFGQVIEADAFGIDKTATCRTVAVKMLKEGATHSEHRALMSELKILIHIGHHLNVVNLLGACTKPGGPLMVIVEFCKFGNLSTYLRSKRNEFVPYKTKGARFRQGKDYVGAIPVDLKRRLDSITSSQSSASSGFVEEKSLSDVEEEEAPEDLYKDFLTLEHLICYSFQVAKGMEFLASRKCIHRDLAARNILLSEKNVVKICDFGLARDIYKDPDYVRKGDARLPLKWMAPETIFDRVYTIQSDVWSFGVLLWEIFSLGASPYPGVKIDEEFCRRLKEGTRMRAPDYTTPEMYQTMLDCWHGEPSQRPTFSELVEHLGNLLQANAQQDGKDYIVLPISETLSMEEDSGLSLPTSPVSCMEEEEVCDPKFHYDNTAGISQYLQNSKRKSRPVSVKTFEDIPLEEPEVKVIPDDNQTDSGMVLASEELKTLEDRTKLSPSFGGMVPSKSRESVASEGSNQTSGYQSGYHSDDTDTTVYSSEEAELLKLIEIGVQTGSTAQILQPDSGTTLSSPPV

Structure (SMILES) | IC50 [µM]
Cn1cc(-c2cc(-c3ccc(N4CCN(Cc5ccn(C)n5)CC4)nc3)c3c(C#N)cnn3c2)cn1 [Example 439, 4-(6-(4-((1-methyl-1H-pyrazol-3-yl)methyl)piperazin-l-yl)pyridin-3-yl)-6-(1-methyl-1H-pyrazol-4-yl)pyrazolo[1,5-a]pyridine-3-carbonitrile] | 1.24
C[C@H](c1ccccc1)N1CCN(c2ccc(-c3cc(-c4cnn(C)c4)cn4ncc(C#N)c34)cn2)CC1 [Example 421, (R)-6-(1-methyl-1H-pyrazol-4-yl)-4-(6-(4-(1-phenylethyl)piperazin-1-yl)pyridin-3-yl)pyrazolo[1,5-a]pyridine-3-carbonitrile dihydrochloride] | 1.62
Cn1cc(-c2cc(-c3ccc(N4CCC5(CCCN(C(=O)OC(C)(C)C)C5)CC4)nc3)c3c(C#N)cnn3c2)cn1 [Example 504, tert-Butyl 9-(5-(3-cyano-6-(1-methyl-1H-pyrazol-4-yl)pyrazolo[1,5-a]pyridin-4-yl)pyridine-2-yl)-2,9-diazaspiro[5.5]undecane-2-carboxylate] | 2.07

Same assay, conditions: pKDR Cell HEK 10% FBS IC50, HEK-293 cells expressing inducible KDR, VEGF stimulated, 10% FBS

Structure (SMILES) | IC50 [µM]
C[C@H](O)Cn1cc(-c2cc(-c3ccc(N4CCN(C(=O)CC(C)(C)C)CC4)cc3)c3c(C#N)cnn3c2)cn1 [Example 304, (S)-4-(4-(4-(3,3-dimethylbutanoyl)piperazin-1-yl)phenyl)-6-(1-(2-hydroxypropyl)-1H-pyrazol-4-yl)pyrazolo[1,5-a]pyridine-3-carbonitrile] | 1.61
Cn1cc(-c2cc(-c3ccc(N4CCN(C(=O)Cc5ccnn5C)CC4)nc3)c3c(C#N)cnn3c2)cn1 [Example 20, 6-(1-methyl-1H-pyrazol-4-yl)-4-(6-(4-(2-(1-methyl-1H-pyrazol-5-yl)acetyl)piperazin-1-yl)pyridin-3-yl)pyrazolo[1,5-a]pyridine-3-carbonitrile] | 1.65
CC(C)[C@@H](O)C(=O)N1CCC2(CCN(c3ccc(-c4cc(-c5cnn(C)c5)cn5ncc(C#N)c45)cn3)CC2)C1 [Example 206, (R)-4-(6-(2-(2-hydroxy-3-methylbutanoyl)-2,8-diazaspiro[4.5]decan-8-yl)pyridin-3-yl)-6-(1-methyl-1H-pyrazol-4-yl)pyrazolo[1,5-a]pyridine-3-carbonitrile] | 1.2
Cn1cc(-c2cc(-c3ccc(N4CCN(C(=O)c5ccccc5N5CCOCC5)CC4)nc3)c3c(C#N)cnn3c2)cn1 [Example 358, 6-(1-methyl-1H-pyrazol-4-yl)-4-(6-(4-(2-morpholinobenzoyl)piperazin-1-yl)pyridin-3-yl)pyrazolo[1,5-a]pyridine-3-carbonitrile bis(2,2,2-trifluoroacetate)] | 0.161
CC(C)C(=O)N1CCC2(CCN(c3ccc(-c4cc(-c5cnn(C)c5)cn5ncc(C#N)c45)cn3)CC2)C1 [Example 207, 4-(6-(2-isobutyryl-2,8-diazaspiro[4.5]decan-8-yl)pyridin-3-yl)-6-(1-methyl-1H-pyrazol-4-yl)pyrazolo[1,5-a]pyridine-3-carbonitrile] | 1.96
Cn1cc(-c2cc(-c3ccc(N4CCN(C(=O)N5CCOCC5)CC4)nc3)c3c(C#N)cnn3c2)cn1 [Example 119, 6-(1-methyl-1H-pyrazol-4-yl)-4-(6-(4-(morpholine-4-carbonyl)piperazin-1-yl)pyridin-3-yl)pyrazolo[1,5-a]pyridine-3-carbonitrile] | 2.27
Cn1cc(-c2cc(-c3ccc(N4[C@@H]5CC[C@H]4C[C@@H](NC(=O)OC(C)(C)C)C5)nc3)c3c(C#N)cnn3c2)cn1 [Example 194, tert-butyl ((1R,3r,5S)-8-(5-(3-cyano-6-(1-methyl-1H-pyrazol-4-yl)pyrazolo[1,5-a]pyridin-4-yl)pyridin-2-yl)-8-azabicyclo[3.2.1]octan-3-yl)carbamate] | 0.242
Cn1cc(-c2cc(-c3ccc(N4CCN(C(=O)N5CCC6(CC6)C5)CC4)nc3)c3c(C#N)cnn3c2)cn1 [Example 117, 4-(6-(4-(5-azaspiro[2.4]heptane-5-carbonyl)piperazin-1-yl)pyridin-3-yl)-6-(1-methyl-1H-pyrazol-4-yl)pyrazolo[1,5-a]pyridine-3-carbonitrile] | 0.354
